From patent publication US4514573A, “Isoprenylamine derivatives” (priority 1981, dated 1985) come the findings set out here.

For one data set, the system named is tumor cells KN7 -8. In words: Anti-tumor activity in mice inoculated with tumor cells. The data set is classed as in vivo, Balb/c male mice. The conditions noted are these: 30 mg/kg intraperitoneally, 24 hours before inoculation and on second and fifth day after; 6 mice per group. An excerpt: Groups, each consisting of 6 Balb/c male mice weighing about 20 g, were intraperitoneally administered 5×10^5 of tumor cells KN7 -8.

The next data set deals with vaccinia virus. It is filed as cell-based. The conditions noted are these: 50 n molar concentration, Vero cells, in vitro.
The nature of data set [1]: Toxicity (50% lethal dose, intravenous). The conditions noted are these: mouse, in vivo, ddY male mice 20-25 g, read-out: LD50 (Intravenously administered mg/kg). An excerpt: Using ddY male mice weighing 20-25 g, 50% lethal dose of each test compound when intravenously administered was obtained, the results of which are shown in Table 5.

Consider `CC(C)=CCCC(C)=CCCC(C)=CCCC(C)=CCCC(C)=CCCC(C)=CCCC(C)=CCCC(C)=CCCC(C)=CCCC(C)=CCNCc1cccc(CN)c1` [drawing 58], for which the “Anti-tumor activity (Survivor on the 30th day)” value in the data set on tumor cells KN7 -8 is reported as 1/6. Turning to `CC(C)=CCCC(C)=CCCC(C)=CCCC(C)=CCCC(C)=CCCC(C)=CCCC(C)=CCCC(C)=CCCC(C)=CCNCc1ccc(C)cc1C`, in the data set on vaccinia virus, the “Anti-vaccinia virus activity Plaque inhibition rate %” value is recorded as 9.8%. As to `CC(C)=CCCC(C)=CCCC(C)=CCCC(C)=CCCC(C)=CCCC(C)=CCCC(C)=CCCC(C)=CCCC(C)=CCCC(C)=CCNCc1cccc2ccccc12` [drawing 62], the LD50 in data set [1] worked out at 207 mg/kg. Take `COc1ccc(CNCC=C(C)CCCC(C)CCCC(C)CCCC(C)C)cc1OC` (stereo not drawn) [drawing 90]: the “Anti-vaccinia virus activity Plaque inhibition rate %” value in the data set with vaccinia virus was found to be 22.0%. On to `COc1ccc(CNCC=C(C)CCC=C(C)CCC=C(C)CCC=C(C)CCC=C(C)CCC=C(C)CCC=C(C)CCC=C(C)CCC=C(C)CCC=C(C)C)cc1OC` [drawing 65], for which the LD50 in data set [1] is 56.8 mg/kg. Still for that read-out and setting: for `COc1cccc(CNCC=C(C)CCC=C(C)CCC=C(C)CCC=C(C)CCC=C(C)CCC=C(C)CCC=C(C)CCC=C(C)CCC=C(C)CCC=C(C)C)c1OC` [drawing 70] the value was 30 mg/kg.
